Source: patent US9334267B2, “RAF inhibitor compounds” (Deciphera Pharmaceuticals, LLC, priority 2012, dated 2016)

Tests used:
[1] = test system: A375 cells; assay: A375 cell proliferation assay (CellTiter-Blue/resazurin); type: cell-based; conditions: Homo sapiens, A-375, V600E mutation, read-out: Cell Proliferation Inhibition IC50, nM A375
Method: (§1) A375 cells (catalog #CRL-1619) are obtained from the American Type Culture Collection (ATCC, Manassas, Va.). Briefly, cells are grown in DMEM High Glucose supplemented with 10% characterized fetal bovine serum (Invitrogen, Carlsbad, Calif.) and 1% Penicillin/Streptomycin/L-Glutamine at 37 degrees Celsius, 5% CO2, and 95% humidity. Cells are allowed to expand until reaching 70-95% confluency at which point they are subcultured or harvested for assay use. A serial dilution of test compound is dispensed into a 384-well black clear bottom plate in triplicate. Six hundred twenty-five cells are added per well in 50 μL complete growth medium in the 384-well plate. Plates are incubated for 67 hours at 37 degrees Celsius, 5% CO2, and 95% humidity. At the end of the incubation period, 10 μL of a 440 μM solution of resazurin (Sigma, St. Louis, Mo.) in PBS is added to each well of the plate and plates are incubated for an additional 5 hours at 37 degrees Celsius, 5% CO2, and 95% humidity. Plates are read on a Synergy2 reader (Biotek, Winooski, Vt.) using an excitation of 540 nm and an emission of 600 nm. Data is analyzed using Prism software (Graphpad, San Diego, Calif.) to calculate IC50 values.
(§2) The A375, HT-29, and Colo-205 cells (ATCC) harbor a V600E mutation.

[2] = test system: Sk-Mel-2 cells; assay: SK-Mel-2 cell proliferation assay (resazurin); type: cell-based; conditions: Homo sapiens, N-Ras mutation B-Raf wild type, read-out: Cell Proliferation Inhibition IC50, nM SK-Mel-2
[3] = test system: Colo205 cells; assay: Colo-205 cell proliferation assay (resazurin); type: cell-based; conditions: Homo sapiens; Colo-205 cells, V600E mutation; read-out: Cell Proliferation Inhibition IC50, nM Colo-205
Method: as §1, with “Colo205 cells” for “A375 cells”, “(catalog #HB-8307)” for “(catalog #CRL-1619)”, “in RPMI 1640” for “in DMEM High Glucose”, “Carlsbad, Calif.), 1 mM sodium pyruvate,” for “Carlsbad, Calif.)”, “reaching 30-60%” for “reaching 70-95%”, “triplicate. One thousand two-hundred fifty” for “triplicate. Six hundred twenty-five”
as §2

[4] = biological target: T1, human wild type C-Raf (Homo sapiens, UniProt P04049); assay: Enzymatic assay of C-Raf kinase activity (Raf/MEK1 ATPase, coupled PK/LDH, A340); type: biochemical; conditions: read-out: Enzyme IC50, nM C-Raf
T1 construct: made in house
Method: Test compounds are evaluated for their inhibitory activities against one or more of human wild type B-Raf, human wild type C-Raf, human B-Raf V600E, human B-Raf V600E+T529I or human B-Raf V600E+G468A. T529I is a threonine to isoleucine B-Raf gatekeeper mutation and G468A is a B-Raf secondary mutation at G1403C in exon 11. The enzymatic assays of B-Raf, C-Raf and B-Raf mutations evaluate a property of Raf and MEK1 complex, which in the presence of ATP, catalyzes an enhanced ATP hydrolysis (Rominger, et al, Arch. Biochem. Biophys. 2007, 464: 130-137; US Patent Publication No. 2006/0211073). The ADP formed is monitored by the well-known coupled PK/LDH (pyruvate kinase/lactate dehydrogenase) system in the form of NADH oxidation, which can be monitored and detected spectrophotometrically by absorbance at 340 nm (A340; for principal of the method see Schindler et al, Science, 2000, 289: 1938-1942). Raf activated MEK1 ATPase activity is a property shared by all forms of Raf proteins.
Test compounds are evaluated for their inhibitory activities against one or more of wild type B-Raf, wild type C-Raf, B-Raf V600E, B-Raf V600E+T529I and B-Raf V600E+G468A. T529I is a B-Raf gatekeeper mutation and G468A is a B-Raf secondary mutation. The enzymatic assays of B-Raf, C-Raf and B-Raf mutations evaluate a property of Raf and MEK1 complex, which in the presence of ATP, catalyzes an enhanced ATP hydrolysis (Rominger, et al, Arch. Biochem. Biophys. 2007, 464: 130-137). The ADP formed is monitored by the well-known coupled PK/LDH (pyruvate kinase/lactate dehydrogenase) system in the form of NADH oxidation, which can be monitored and detected by absorbance at 340 nm (A340; for principal of the method see Schindler et al, Science, 2000, 289: 1938-1942). Raf activated MEK1 ATPase activity is a property shared by all forms of Raf proteins. In the B-Raf wild type enzymatic assay, the reaction mixture contains 1.2 nM B-Raf, 30 nM MEK1, 1000 uM ATP, 3.5 units (per 100 ul) of PK, 5 units (per 100 ul) of LDH, 1 mM phosphoenol pyruvate (PEP), and 280 uM of NADH. In the C-Raf assay, the reaction mixture contains 0.6 nM C-Raf, 26 nM MEK1, 2000 uM ATP, and the same amount of PK, LDH, PEP and NADH as above. In the B-Raf V600E assay, the reaction mixture contains […] B-Raf V600E, 26 nM MEK1, 200 uM ATP and the same amount of PK, LDH, PEP and NADH as above. In the B-RafV600E+T529I assay, the reaction mixture contains 6.2 nM B-Raf V600E+T529I, 30 nM MEK1, 200 uM ATP and the same amount of PK, LDH, PEP and NADH as above. In the B-Raf V600E+G468A assay, the reaction mixture contains 3.5 nM B-Raf, 30 nM MEK1, 200 uM ATP and the same amount of PK, LDH, PEP and NADH as above. All assays are started by mixing the above mixture with test compound and monitoring at A340 continuously for approximately 5 hr. […] In the aforementioned assays, the enzyme constructs can be screened prior to or after cleavage of the N-terminal purification tag.

T1 sequence (P04049 whole entry): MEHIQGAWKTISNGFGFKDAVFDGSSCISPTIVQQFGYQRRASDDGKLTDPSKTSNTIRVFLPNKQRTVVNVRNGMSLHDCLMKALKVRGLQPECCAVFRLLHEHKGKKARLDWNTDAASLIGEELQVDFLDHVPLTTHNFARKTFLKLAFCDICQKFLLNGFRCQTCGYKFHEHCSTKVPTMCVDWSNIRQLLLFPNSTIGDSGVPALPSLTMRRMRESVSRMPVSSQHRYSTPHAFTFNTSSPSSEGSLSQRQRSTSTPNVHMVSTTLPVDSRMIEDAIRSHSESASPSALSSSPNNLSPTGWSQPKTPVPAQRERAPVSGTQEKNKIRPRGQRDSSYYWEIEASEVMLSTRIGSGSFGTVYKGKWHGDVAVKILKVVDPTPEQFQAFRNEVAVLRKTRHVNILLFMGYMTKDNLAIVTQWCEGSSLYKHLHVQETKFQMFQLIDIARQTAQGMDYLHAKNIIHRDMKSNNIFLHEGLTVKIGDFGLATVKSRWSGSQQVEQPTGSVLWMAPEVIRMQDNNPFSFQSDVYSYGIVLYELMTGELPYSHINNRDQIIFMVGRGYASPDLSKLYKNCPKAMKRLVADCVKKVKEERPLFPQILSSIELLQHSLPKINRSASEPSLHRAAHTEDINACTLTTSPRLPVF

Row | IC50 [1] | IC50 [2] | IC50 [3] | IC50 [4] | Compound
1 | < 100 nM | 100 to 1000 nM | < 100 nM | < 150 nM | COCCNc1ncc2cc(-c3cc(NC(=O)NC4CC(C)(C)C4)c(F)cc3C)c(C)nc2n1 [Example 31, 1-(3,3-Dimethylcyclobutyl)-3-(2-fluoro-5-(2-((2-methoxyethyl)amino)-7-methylpyrido[2,3-d]pyrimidin-6-yl)-4-methylphenyl)urea]
2 | < 100 nM | 100 to 1000 nM | < 100 nM | < 150 nM | CNc1ncc2cc(-c3cc(NC(=O)NCCC(C)(C)C)c(F)cc3Br)c(C)nc2n1 [Example 32, 1-(4-Bromo-2-fluoro-5-(7-methyl-2-(methylamino)pyrido[2,3-d]pyrimidin-6-yl)phenyl)-3-(3,3-dimethylbutyl)urea]
3 | < 100 nM | 100 to 1000 nM | < 100 nM | < 150 nM | CC(=O)Nc1ncc2cc(-c3cc(NC(=O)NCCC(C)(C)C)c(F)cc3C)c(C)nc2n1 [Example 33, N-(6-(5-(3-(3,3-Dimethylbutyl)ureido)-4-fluoro-2-methylphenyl)-7-methylpyrido[2,3-d]pyrimidin-2-yl)acetamide]
4 | 100 to 1000 nM | 100 to 1000 nM | 100 to 1000 nM | < 150 nM | CNc1ncc2cc(-c3cc(NC(=O)NCCC(C)(C)F)c(F)cc3C)cnc2n1 [Example 34, 1-(3-Fluoro-3-methyl-butyl)-3-[2-fluoro-4-methyl-5-(2-methylaminopyrido[2,3-d]pyrimidin-6-yl)phenyl]urea]
5 | < 100 nM | < 100 nM | < 100 nM | < 150 nM | CNc1ncc2cc(-c3cc(NC(=O)NCCC(C)(C)C)c(F)cc3C)cnc2n1 [Example 35, 1-(3,3-Dimethylbutyl)-3-[2-fluoro-4-methyl-5-(2-methylaminopyrido[2,3-d]pyrimidin-6-yl)phenyl]urea]
6 | 1000 to 10000 nM | 1000 to 10000 nM | 1000 to 10000 nM | < 150 nM | CNc1ncc2cc(-c3cc(NC(=O)NCCC(C)(C)C)c(F)cc3F)cnc2n1 [Example 36, 1-(2,4-Difluoro-5-(2-(methylamino)pyrido[2,3-d]pyrimidin-6-yl)phenyl)-3-(3,3-dimethylbutyl)urea methanesulfonate]
